Data set [1] relates to MC-38. Description: Antitumor activity against mouse Colon 38 cells xenografted BDF mouse at 7.5 mg/kg, iv administered in QD 3-11 schedule. Format: functional.
The subject of data set [2] is Mus musculus. Nature of the data set: Necrosis in iv dosed mouse assessed as inflamed, bloody, upper GI tract with pancreatic damage and hemorrhage in lungs. Format: organism-based, Gastrointestinal tract. Conditions: in vivo.
The test system of data set [3] is MC-38. Description: Cytotoxicity against mouse Colon 38 cells assessed as zone units at 2 ug/disk by Corbett soft agar disk diffusion assay. Format: functional. A general note: Agar diffusion results depend on both activity and mobility in agar.
Data set [4] is described as follows: Antitumor activity against mouse mammary 16/C cells xenografted C3H mouse at 3.2 mg/kg, iv administered in d 1,2 schedule. Format: functional.
The subject of data set [5] is Mus musculus. Description: Toxicity in mouse mammary 16/C cells xenografted C3H mouse assessed as mortality at 3.2 mg/kg, iv administered in d 1,2 schedule. It counts as organism-based. More on the design: dose 3.2 mg/kg, route intravenous. Conditions: in vivo.
The nature of data set [6]: Cytotoxicity against human H116 cells assessed as zone units at 2 ug/disk by Corbett soft agar disk diffusion assay. It counts as functional.
In data set [7] the test system is Mus musculus. Description: Toxicity in mouse mammary 16/C cells xenografted C3H mouse assessed as body weight loss at nadir at 3.2 mg/kg, iv administered in d 1,2 schedule. It counts as organism-based. The arrangement: dose 3.2 mg/kg, route intravenous. Conditions: in vivo.
The subject of data set [8] is L1210. Description: Cytotoxicity against mouse L1210 cells assessed as zone units at 2 ug/disk by Corbett soft agar disk diffusion assay. Format: functional.
Data set [9] has as its system Mus musculus. Description: Toxicity in mouse Colon 38 cells xenografted BDF mouse assessed as body weight loss at nadir at 7.5 mg/kg, iv administered in QD 3-11 schedule. Format: organism-based, MC-38. More on the design: dose 7.5 mg/kg, route intravenous. The following applies: in vivo.
A short description of data set [10]: Cytotoxicity against mouse mammary 17/Adr cells assessed as zone units at 2 ug/disk by Corbett soft agar disk diffusion assay. Format: functional.
Data set [11] relates to Mus musculus. Nature of the data set: Toxicity in mouse Colon 38 cells xenografted BDF mouse assessed as body weight loss at nadir at 10.3 mg/kg, iv administered in QD 3-11 schedule. Format: organism-based, MC-38. The arrangement: dose 10.3 mg/kg, route intravenous. The following applies: in vivo.
A short description of data set [12]: Antitumor activity against mouse mammary 16/C cells xenografted C3H mouse at 6.4 mg/kg, iv administered in QD 1-8 schedule. It counts as functional.
The next data set relates to LoVo. Description: Cytotoxicity against human LoVo cells. Format: functional.
Data set [13] deals with A10. Nature of the data set: Induction of apoptosis in rat A10 cells assessed as apoptotic nuclei at 2 ug/ml. Format: functional, cell-based.
Data set [14] relates to MC-38. Nature of the data set: Antitumor activity against mouse Colon 38 cells xenografted BDF mouse at 10.3 mg/kg, iv administered in QD 3-11 schedule. It counts as functional.
In data set [15] the test system is Mus musculus. Description: Toxicity in mouse mammary 16/C cells xenografted C3H mouse assessed as mortality at 6.4 mg/kg, iv administered in QD 1-8 schedule. The following applies: in vivo. Format: organism-based. More on the design: dose 6.4 mg/kg, route intravenous.
Data set [16] deals with A10. Description: Effect on morphology in rat A10 cells assessed as formation of binuclear cells at 0.01 to 2 ug/ml. Format: functional, cell-based.
Data set [17] can be described thus: Cytotoxicity against CFU-GM cells assessed as zone units at 2 ug/disk by Corbett soft agar disk diffusion assay. It counts as functional.
Data set [18] relates to A10. Description: Inhibition of cytokinesis in rat A10 cells at 0.01 to 2 ug/ml. It counts as functional, cell-based.
In data set [19] the test system is A10. Nature of the data set: Effect on morphology in rat A10 cells assessed as microtubule loss at 0.01 to 2 ug/ml after 24 hrs by […]. It counts as functional, cell-based.
Another data set relates to KB. Nature of the data set: Cytotoxicity against human KB cells. Format: functional.
Data set [20] has as its system Mus musculus. Description: Toxicity in mouse mammary 16/C cells xenografted C3H mouse assessed as body weight loss at nadir at 6.4 mg/kg, iv administered in QD 1-8 schedule. It counts as organism-based. The arrangement: dose 6.4 mg/kg, route intravenous. The following applies: in vivo.
For data set [21], the system named is L1210. Nature of the data set: Cytotoxicity against mouse L1210 cells assessed as zone units at 12 ug/disk by Corbett soft agar disk diffusion assay. It counts as functional.
A short description of data set [22]: Cytotoxicity against human H116 cells assessed as zone units at 12 ug/disk by Corbett soft agar disk diffusion assay. It counts as functional.
Data set [23] can be described thus: Cytotoxicity against CFU-GM cells assessed as zone units at 12 ug/disk by Corbett soft agar disk diffusion assay. It counts as functional.
Data set [24] has as its system MC-38. Description: Cytotoxicity against mouse Colon 38 cells assessed as zone units at 12 ug/disk by Corbett soft agar disk diffusion assay. Format: functional.
Data set [25] has as its system A10. Description: Effect on morphology in rat A10 cells assessed as loss of cellular microfilament network at 2 ug/ml after 24 hrs by rhodamine-phalloidin staining. Format: functional, cell-based.
The subject of data set [26] is A10. Nature of the data set: Effect on morphology in rat A10 cells assessed as loss of cellular microfilament network at 0.2 ug/ml after 24 hrs by rhodamine-phalloidin staining. Format: functional, cell-based.
Data set [27] deals with MC-38. Nature of the data set: Antitumor activity against mouse Colon 38 cells xenografted BDF mouse at 13 mg/kg, iv administered in QD 3-11 schedule. Format: functional.
The test system of data set [28] is Mus musculus. Nature of the data set: Toxicity in mouse Colon 38 cells xenografted BDF mouse assessed as body weight loss at nadir at 15 mg/kg, iv administered in d 3,4,7-10 schedule. It counts as organism-based, MC-38. The following applies: in vivo. More on the design: dose 15 mg/kg, route intravenous.
Data set [29] relates to A10. Nature of the data set: Inhibition of cytokinesis in rat A10 cells. It counts as functional, cell-based.
Data set [30] deals with Mus musculus. Description: Toxicity in mouse Colon 38 cells xenografted BDF mouse assessed as mortality at 13 mg/kg, iv administered in QD 3-11 schedule. Conditions: in vivo. The arrangement: dose 13 mg/kg, route intravenous. Format: organism-based, MC-38.
Data set [31] relates to Mus musculus. Nature of the data set: Toxicity in mouse mammary 16/C cells xenografted C3H mouse assessed as mortality at 11.7 mg/kg, iv administered in QD 1-9 schedule. It counts as organism-based. More on the design: dose 11.7 mg/kg, route intravenous. The following applies: in vivo.
The subject of data set [32] is Mus musculus. Description: Toxicity in mouse mammary 16/C cells xenografted C3H mouse assessed as body weight loss at nadir at 11.7 mg/kg, iv administered in QD 1-9 schedule. It counts as organism-based. The arrangement: dose 11.7 mg/kg, route intravenous. The following applies: in vivo.
Data set [33] has as its system A10. Nature of the data set: Induction of apoptosis in rat A10 cells assessed as fragmented cell nuclei at 0.2 ug/ml. Format: functional, cell-based.
Data set [34] relates to Mus musculus. Nature of the data set: Antitumor activity against mouse mammary 16/C cells xenografted C3H mouse at 4.8 mg/kg, iv administered in d 1,2 schedule. Format: functional, organism-based. The arrangement: dose 4.8 mg/kg.
Data set [35] concerns A10. Nature of the data set: Effect on morphology in rat A10 cells assessed as microtubule loss at 2 ug/ml after 24 hrs by […]. Format: functional, cell-based.
Data set [36] deals with Mus musculus. Description: Toxicity in mouse Colon 38 cells xenografted BDF mouse assessed as body weight loss at nadir at 13 mg/kg, iv administered in QD 3-11 schedule. Format: organism-based, MC-38. The arrangement: dose 13 mg/kg, route intravenous. Conditions: in vivo.
Data set [37] concerns Mus musculus. Nature of the data set: Toxicity in mouse mammary 16/C cells xenografted C3H mouse assessed as mortality at 4.8 mg/kg, iv administered in d 1,2 schedule. The following applies: in vivo. The arrangement: dose 4.8 mg/kg, route intravenous. It counts as organism-based.
Data set [38] concerns MC-38. Nature of the data set: Antitumor activity against mouse Colon 38 cells xenografted BDF mouse at 15 mg/kg, iv administered in d 3,4,7-10 schedule. Format: functional, organism-based. The arrangement: dose 15 mg/kg.
For data set [39], the system named is Mus musculus. Nature of the data set: Toxicity in mouse mammary 16/C cells xenografted C3H mouse assessed as body weight loss at nadir at 4.8 mg/kg, iv administered in d 1,2 schedule. The following applies: in vivo. The arrangement: dose 4.8 mg/kg, route intravenous. It counts as organism-based.
Data set [40] deals with A10. Description: Effect on morphology in rat A10 cells assessed as microtubule loss at 0.2 ug/ml after 24 hrs by […]. It counts as functional, cell-based.
The nature of data set [41]: Antitumor activity against mouse mammary 16/C cells xenografted C3H mouse at 11.7 mg/kg, iv administered in QD 1-9 schedule. It counts as functional.
The test system of data set [42] is A10. Description: Effect on morphology in rat A10 cells assessed as formation of binuclear cells. Format: functional, cell-based.

≈ marks a conversion by molar mass, not a printed value. Calls of active or inactive are those of the source. No cut-off for these calls is given here. *1 amine or outer side, *2 acyl side, *3 side chain or, on linkers, in order; H or OH if unused. Where a SMILES comes first, the peptide text is derived from it. [ ]: non-standard residue; d: D form. X2 = CC[C@H](C)[C@H](OC(=O)[C@@H](C)[C@@H](CC)N[*:1])C(=O)[*:2]; X1 = C[C@H](N[*:1])C(=O)C(C)(C)C(=O)[*:2]; NMeY = CN[C@@H](Cc1ccc(O)cc1)C(=O)O; NMeF = CN[C@@H](Cc1ccccc1)C(=O)O; NMeI = CC[C@H](C)[C@H](NC)C(=O)O; NMeL = CN[C@@H](CC(C)C)C(=O)O; NMeV = CN[C@H](C(=O)O)C(C)C; NMeA = CN[C@@H](C)C(=O)O

As usually defined, the T/C is the ratio of treated to control.

For `CC[C@H](C)[C@@H]1OC(=O)[C@@H](C)[C@@H](CC)NC(=O)[C@H](C)N(C)C(=O)C(C)(C)C(=O)[C@H](C)NC(=O)[C@H](Cc2ccccc2)N(C)C(=O)[C@H](C(C)C)N(C)C(=O)CNC(=O)[C@H](CC(C)C)N(C)C(=O)CNC1=O` [DOLASTATIN 12] (cyclo(G[NMeL]G[NMeV][NMeF][X1][NMeA][X2])), the T/C in the data set on MC-38 [1] came to 92%; in [4] it was 68%; in data set [12], 86%; with MC-38 [14], 41%. Moreover, the Activity entry is reported as “Toxic” in the data set with Mus musculus [2]; 630 Zone units in the data set with MC-38 [3]; “Toxic” in the data set on Mus musculus [5]; 480 Zone units in data set [6]; -13% in the data set with Mus musculus [7]; 420 Zone units with L1210 [8]. Moreover, the Activity with Mus musculus [9] is -8%; in [10], 270 Zone units; in the data set with Mus musculus [11], -15%; in the data set on Mus musculus [15] it was “Non-toxic”; in [17], 500 Zone units; in the data set on Mus musculus [20], -3%. For the same molecule, the results for the MIC against LoVo and against KB were 0.08 µg/mL (≈ 0.0825 µM) and less than 0.05 µg/mL, respectively. In addition, the outcome in the data set with A10 [13], in the data set with A10 [16] and in the data set on A10 [18] was Active. Also, the outcome in the data set on A10 [19] was inactive.
Consider `CC[C@H](C)[C@@H]1OC(=O)[C@@H](C)[C@@H](CC)NC(=O)[C@H](C)NC(=O)C(C)(C)C(=O)[C@H](C)NC(=O)[C@H](Cc2ccc(OC)cc2)N(C)C(=O)[C@H](C(C)C)N(C)C(=O)CNC(=O)[C@H]([C@@H](C)CC)N(C)C(=O)CNC1=O` [MAJUSCULAMIDE] (cyclo(A[X2]G[NMeI]G[NMeV][NMeY](Me)[X1])), for which the Activity stood at 500 Zone units in the data set with L1210 [21], 710 Zone units in data set [22], 450 Zone units in data set [23] and 730 Zone units with MC-38 [24].
On to `CC[C@H](C)[C@@H]1OC(=O)[C@@H](C)[C@@H](CC)NC(=O)[C@H](C)N(C)C(=O)C(C)(C)C(=O)[C@H](C)NC(=O)[C@H](Cc2ccc(OC)cc2)N(C)C(=O)[C@H](C(C)C)N(C)C(=O)CNC(=O)[C@H](CC(C)C)N(C)C(=O)CNC1=O` [epilyngbyastatin 1] (cyclo(G[NMeL]G[NMeV][NMeY](Me)[X1][NMeA][X2])), for which the outcome with A10 [25], in the data set with A10 [26] and with A10 [13] was Active. Further, the T/C in the data set on MC-38 [27] was 93%; in data set [41], 61%. In addition, the Activity entry in the data set on Mus musculus [2] is listed as “Toxic”; in the data set with Mus musculus [28], -8%; in the data set on MC-38 [3], 670 Zone units; in [6] it was 580 Zone units; in the data set on L1210 [8] it was 450 Zone units; in the data set with Mus musculus [30] it was “Non-toxic”. Further, the Activity entry was “Non-toxic” with Mus musculus [31]; -4% in the data set with Mus musculus [32]; 650 Zone units in data set [10]; “Toxic” in the data set with Mus musculus [34]; -3% in the data set with Mus musculus [36]; “Toxic” with Mus musculus [37]. The Activity in data set [17] was 570 Zone units; in the data set on MC-38 [38] it was “Toxic”; in the data set on Mus musculus [39], “Toxic”. The outcome with A10 [29], in the data set on A10 [33], in the data set with A10 [35], in the data set with A10 [40] and in the data set on A10 [42] was inactive. Further, the MIC in the data set on LoVo was found to be 0.5 µg/mL (≈ 0.5 µM); with KB, 0.1 µg/mL (≈ 0.1 µM).

For the origin of these results see ChEMBL document CHEMBL1150960, “Isolation, structure determination, and biological activity of dolastatin 12 and lyngbyastatin 1 from Lyngbya majuscula/Schizothrix calcicola cyanobacterial assemblages” (J Nat Prod, 1998).
